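Exposure lasted 48 hours, with cells grown in 96-well plates and compounds tested at five concentrations. Abbreviation: GI50, concentration required for 50% inhibition of growth.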 Activity calls are given as the source filed them. No stated cut-off is given here; in the data, active = GI50 up to about 1.1 µM and inactive = higher.
Tests used:
Experiment in all cases: DTP human tumour cell line panel, 48 h
[1] = tested on: A549
[2] = tested on: ACHN
[3] = tested on: HCC 2998
[4] = tested on: HOP-92
[5] = tested on: LOX IMVI
[6] = tested on: M14
[7] = tested on: MOLT-4
[8] = tested on: Malme-3M
[9] = tested on: OVCAR-3
[10] = tested on: SK-MEL-28
[11] = tested on: SK-MEL-5
[12] = tested on: SK-OV-3
[13] = tested on: SN12C
[14] = tested on: U-251
[15] = tested on: UACC-257
[16] = tested on: UACC-62
[17] = tested on: UO-31
[18] = tested on: OVCAR-5
[19] = tested on: MCF7

Measured: GI50

COC(=O)/C(C#N)=C1\NN=NN1CCCc1ccccc1
inactive: [1] > 100 µM | [2] > 100 µM | [3] > 100 µM | [4] > 100 µM | [5] > 100 µM | [6] > 100 µM | [7] > 100 µM | [8] > 100 µM | [9] > 100 µM | [10] > 100 µM | [11] > 100 µM | [12] > 100 µM | [13] > 100 µM | [14] > 100 µM | [15] > 100 µM | [16] > 100 µM | [17] 76.4 µM

N#C/N=C(/N)NCO
inactive: [1] > 57.4 µM | [2] > 100 µM | [3] > 100 µM | [4] > 100 µM | [5] > 39.9 µM | [6] > 100 µM | [7] > 100 µM | [8] > 100 µM | [9] > 100 µM | [18] > 100 µM | [10] > 100 µM | [11] > 100 µM | [12] > 100 µM | [13] > 100 µM | [14] > 53.7 µM | [15] > 100 µM | [16] > 100 µM | [17] > 100 µM

CCOC(=O)NC(=O)c1cn(CCSCCOC(=O)NCCCCCCNC(=O)OCCSCCn2cc(C(=O)NC(=O)OCC)c(=O)n(C)c2=O)c(=O)n(C)c1=O
inactive: [1] 45.2 µM | [2] > 100 µM | [3] 30.5 µM | [4] 20.9 µM | [5] 32.1 µM | [7] 5.68 µM | [8] 24.6 µM | [9] 23.8 µM | [18] > 100 µM | [10] 41.8 µM | [12] 34.7 µM | [13] 21.8 µM | [14] 16.8 µM | [15] 24.4 µM | [16] 24.8 µM | [17] > 100 µM

CC(NC1CCCC[C@@H]1O)c1ccccc1 (stereo partly specified)
inactive: [1] > 100 µM | [2] > 100 µM | [3] > 100 µM | [4] > 100 µM | [5] > 100 µM | [6] > 100 µM | [7] > 100 µM | [8] > 100 µM | [9] > 100 µM | [18] > 100 µM | [10] > 100 µM | [11] > 100 µM | [12] > 100 µM | [13] > 100 µM | [14] > 100 µM | [15] > 100 µM | [16] > 100 µM | [17] > 100 µM

CC1(c2cc3c(cc2Br)OCO3)SCCCS1
inactive: [1] 34.5 µM | [2] 41.4 µM | [3] 16.4 µM | [4] 17.7 µM | [5] 40 µM | [6] 38.3 µM | [7] 24.7 µM | [9] 38.4 µM | [18] 42.3 µM | [10] 78 µM | [11] 20.4 µM | [12] > 100 µM | [13] 39.3 µM | [14] 33 µM | [16] 50.6 µM | [17] 24.2 µM

Cc1cccc(C(C)(C)C)c1NC(=O)CCc1nnc(S)[nH]1
inactive: [1] > 100 µM | [2] > 100 µM | [3] > 100 µM | [4] > 100 µM | [5] > 100 µM | [6] > 100 µM | [7] > 100 µM | [8] > 100 µM | [9] > 100 µM | [18] > 100 µM | [10] > 100 µM | [11] > 100 µM | [12] > 100 µM | [13] > 100 µM | [14] > 100 µM | [15] > 100 µM | [16] > 100 µM | [17] > 100 µM

CS/C(=N\C(=S)N(C)C)N(c1ccccc1)c1nc(N(C)C)s[s+]1
inactive: [1] 3.84 µM | [2] 23.8 µM | [3] 11.9 µM | [4] 20.9 µM | [5] 5.74 µM | [6] 4.83 µM | [7] 3.08 µM | [8] 2.34 µM | [9] 10.8 µM | [10] 2.21 µM | [12] 41.3 µM | [13] 13.1 µM | [14] 6.84 µM | [15] 3.95 µM | [16] 4.88 µM | [17] 27.9 µM

CCOC(=O)C1=C(Nc2ccc(Cl)cc2Cl)OC/C1=N\NS(=O)(=O)c1ccc(C)cc1
inactive: [1] > 100 µM | [2] > 100 µM | [3] > 100 µM | [4] > 100 µM | [5] > 100 µM | [6] > 100 µM | [7] > 100 µM | [8] > 100 µM | [9] 41.2 µM | [18] > 100 µM | [10] > 100 µM | [11] > 100 µM | [12] > 100 µM | [13] > 100 µM | [14] > 100 µM | [15] > 100 µM | [16] 92.9 µM | [17] > 100 µM

N#CC(C#N)=Cc1ccc(C(O)P(=O)(O)O)cc1 (stereo unspecified)
inactive: [1] > 100 µM | [2] > 100 µM | [3] > 100 µM | [4] 39.6 µM | [5] > 100 µM | [6] > 100 µM | [7] > 100 µM | [8] > 100 µM | [9] > 100 µM | [18] > 100 µM | [10] > 100 µM | [11] > 100 µM | [12] > 100 µM | [13] > 100 µM | [14] > 100 µM | [15] > 100 µM | [16] > 100 µM | [17] > 100 µM

Cc1nc2c(o1)/C(=N\c1ccccc1)c1ccccc1/C2=N/c1ccccc1
inactive: [1] > 100 µM | [2] 53.6 µM | [3] > 100 µM | [4] 49.2 µM | [5] 28.4 µM | [6] 51.5 µM | [7] > 100 µM | [8] 56.6 µM | [9] 26.6 µM | [18] > 100 µM | [11] > 100 µM | [12] > 100 µM | [13] 63.4 µM | [14] 79.3 µM | [15] > 100 µM | [16] > 100 µM | [17] 73.6 µM

N#CCCc1nc2ccc(Br)cc2c(=O)n1-c1ccc(O)c([N+](=O)[O-])c1
inactive: [1] 55 µM | [2] 30.3 µM | [3] 18.6 µM | [4] 25.4 µM | [5] 19 µM | [6] 21 µM | [7] 19.6 µM | [8] 17.3 µM | [9] 18.7 µM | [18] 46.1 µM | [10] 19.3 µM | [11] 18.4 µM | [12] 38.5 µM | [13] 19 µM | [14] > 10 µM | [15] 30.1 µM | [16] 18.9 µM | [17] 25.6 µM

O=C(CC(=O)n1nc(-c2ccccc2)c(/N=N/c2ccc(Cl)cc2)c1-c1ccccc1)Nc1ccc(Cl)cc1
inactive: [1] > 43.9 µM | [2] > 100 µM | [3] > 100 µM | [4] > 91 µM | [5] > 41.5 µM | [6] > 100 µM | [7] > 100 µM | [8] > 100 µM | [9] > 100 µM | [18] > 100 µM | [10] > 100 µM | [11] > 100 µM | [12] > 100 µM | [13] > 100 µM | [14] > 100 µM | [15] > 49.2 µM | [16] > 100 µM | [17] > 100 µM

CC1=C[P+](c2ccccc2)(c2ccccc2)c2ccccc2O1
inactive: [1] 13.6 µM | [2] 30.6 µM | [4] 3.73 µM | [5] 4.45 µM | [6] 3.39 µM | [19] 5.05 µM | [7] 2.15 µM | [8] 4.71 µM | [9] 1.14 µM | [18] 17.4 µM | [10] 7.01 µM | [11] 2.81 µM | [12] 25 µM | [13] 1.32 µM | [14] 3.65 µM | [15] 2.79 µM | [16] 8 µM | [17] > 100 µM

CC1=C[C@@H]2Cc3occc3C(C)(C)[C@@H]2CC1
inactive: [1] 22.9 µM | [2] 16 µM | [3] 21.4 µM | [4] 19.5 µM | [5] 19.2 µM | [6] 22.3 µM | [7] 19.6 µM | [8] 20 µM | [9] 17.7 µM | [18] 22.8 µM | [10] 24 µM | [11] 17.9 µM | [12] 38.1 µM | [13] 15.8 µM | [14] 18.5 µM | [15] 22.5 µM | [16] > 10 µM | [17] 19.2 µM

Cc1cc(Cl)cc2c1NC(=O)C2(O)C(C)C(=O)c1ccc(Cl)cc1 (stereo unspecified)
inactive: [1] > 100 µM | [2] > 100 µM | [3] > 100 µM | [4] 33.9 µM | [5] > 100 µM | [6] > 100 µM | [7] 28.4 µM | [8] > 61.7 µM | [9] 49.9 µM | [18] > 100 µM | [10] > 62.1 µM | [11] 27.7 µM | [12] > 100 µM | [13] > 74.1 µM | [14] 72.4 µM | [15] 42.6 µM | [16] 20.2 µM | [17] > 100 µM

CN(C)/N=C(\CCN1CCCC1)CC(c1ccccc1)c1c(O)c2ccccc2oc1=O (stereo unspecified)
inactive: [1] > 100 µM | [2] > 100 µM | [3] > 100 µM | [4] > 100 µM | [5] > 100 µM | [6] > 100 µM | [8] > 100 µM | [9] > 100 µM | [18] > 100 µM | [10] > 100 µM | [12] > 100 µM | [13] > 100 µM | [15] > 100 µM | [16] > 100 µM
